“And” between values parts separate entries of the source, which are not always exact repeats. Equal values may be shown once. Read-outs that look alike come from different tables or passages of the source.
Legend:
[1] = tested on: wounds of STZ-induced diabetic rats; test: Wound closure test in STZ-induced diabetic rats; format: in vivo, rat; conditions: mean ± SEM
Excerpt: Approximately 8 weeks old, with body weight rages of 250 g to 300 g SD male rats were obtained from National Laboratory Animal Center, Taiwan. After 7 days of quarantine, the rats were moved until the body weight over 350 g. The rats were identified by ear notch of the animals. Each cage tag was labeled with the cage number, study number, sex and group name. The rats were housed 2 per cage in polycarbonate cage in the AAALAC accredited animal facility. […] Laboratory Rodent Diet 5001 (PMI® Nutrition International, Inc., MO, USA) were supplied ad libitum throughout the study period. Tap water was supplied ad libitum via bottles attached to the cages. Samples (test articles) were prepared according to Table 4. [table] CGS-21680: Specific adenosine A2A subtype receptor agonist, prepared by adding 1.67 mg of CGS-21680 in 248.4 g of cream base. Diabetic rats: The rats with body weight over 300 g were administrated with one dose of Streptozotocin (STZ, 65 mg/kg) by intravenous injection. The STZ-induced rats with high blood sugar (over 300 mg/dL) for 2 months were selected to conduct the wound closure test. Trauma surgeries for diabetic rats: The diabetic rats with weight lower than 300 g were eliminated and the rest were randomized into 6 groups. The rats were then anesthetized with pentobarbital and hairs on surgical area (dorsal area) were removed. […] Medication and wound closure measurement: The animals were weighed and the area of wounds was measured every other day for evaluation of wound closure. Medications were applied to each wound twice a day and the wounds were covered with cheesecloth. The hoods were worn on the necks of the rats to prevent the wounds from receiving animal scratches. […] When taking pictures, a standard ruler was placed beside the wounds. Before analyzing the wounds with Image pro (Media cybernetics), length was standardized with the standard ruler in the picture to avoid the errors caused by different picturing distances. Data analysis and statistics: Three wound areas on the rats' backs were analyzed by Image pro. The original wound areas were the areas of day zero. The original wound areas minus the wound areas at different time points and then divided by the original wound areas to get the wound closure percentages. The mean of three wound closure percentages of each rat represents the wound closure of each rat. The data was shown as mean±standard error (SEM). The p-values of the testing results were calculated by t-test in statistics software (SYSTAT, Systat software inc). P<0.05 means there is a significant difference, and it is marked with *. P<0.01 means there is a very significant difference, and it is marked with **. P<0.001 means there is an extremely significant difference, and it is marked with ***.

[2] = tested on: MDA-MB-231 (human breast cancer cells) tumor; test: Tumor growth in MDA-MB-231 tumor-bearing nude mice; format: in vivo; conditions: CTX one injection a week, test article topical 0.1 g/day
Excerpt: Cell line and reagent: MDA-MB-231 (purchased from Food Industry Research and Development Institute, Taiwan); […] Animal facility: Approximately 6 to 8 week-old BALB/cAnN.Cg-Foxn1^nu/CrlNarl female mice were obtained from National Laboratory Animal Center, Taiwan. […] Water and food was supplied ad libitum throughout the study period. The mice were housed according to the standard procedure of the laboratory animal committee. Tumor-bearing mice induction: […] The weight, appetite, blood sugar and tumor size growth were observed every week to assess the appearance of the normal physiological state of nude mice to understand the efficacy of the extract composition. Grouping the tumor-bearing mice and treatment: […] The chemotherapy drug (an injection a week) was administrated with the extract composition. […] [table] Clinical assessment of tumor-bearing mice: The physiological state and tumor size of the tumor-bearing mice were assessed including weight, appetite, blood sugar and tumor size.

[3] = format: in vivo, nude mice
Method: Animal facility: Approximately 6 to 8 week-old BALB/cAnN.Cg-Foxn1^nu/CrlNarl female mice were obtained from National Laboratory Animal Center, Taiwan. The environment conditions were: temperature: 25±1° C.; humidity: 60±5%; independent air condition; controlled light cycle. Water and food was supplied ad libitum throughout the study period. The mice were housed according to the standard procedure of the laboratory animal committee.
Tumor-bearing mice induction: MDA-MB-231 cells (human breast cancer cells) were cultured until 5×10^6 cells, the cells required in injection of female nude mice were collected with trypsin, and resuspended in PBS solution for tumor induction. The tumor of nude mice was induced by subcutaneous injected with 100 μL of cell solution and released back into the cages to be a normal diet. When the tumor was about 300 mm^3, the mice were subjected to topical administration of different doses of the extract composition and grouping into CTX group and non-CTX group. The weight, appetite, blood sugar and tumor size growth were observed every week to assess the appearance of the normal physiological state of nude mice to understand the efficacy of the extract composition.
Grouping the tumor-bearing mice and treatment: When the tumor was about 300 mm^3, the mice were subjected to grouping as shown in Table 12. The chemotherapy drug (an injection a week) was administrated with the extract composition. The treating group was topically applied to the tumor area, skin around the tumor, and the whole back skin with the dosage of 0.1 g/day. After treatment for 5 weeks, the weight, appetite, blood sugar and tumor size growth of the nude mice were observed.
Clinical assessment of tumor-bearing mice: The physiological state and tumor size of the tumor-bearing mice were assessed including weight, appetite, blood sugar and tumor size. The tumor size was calculated according to: tumor volume (mm^3)=ab^2/2, to assess the tumor growth rate.

## CCNC(=O)[C@H]1O[C@@H](n2cnc3c(N)nc(NCCc4ccc(CCC(=O)O)cc4)nc32)[C@H](O)[C@@H]1O [CGS-21680]
[1]; Experimental 1, day 4, topical twice a day, CGS-21680 10 μg/wound
  wound closure percentage: 21.87±5.61% and 21.87 ± 5.61 *** %
[1]; Experimental 1, day 6, topical twice a day, CGS-21680 10 μg/wound
  wound closure percentage: 25.45 ± 4.46 *** %
[1]; Experimental 1, day 8, topical twice a day, CGS-21680 10 μg/wound
  wound closure percentage: 45.88 ± 4.28 *** %
[1]; Experimental 1, day 10, topical twice a day, CGS-21680 10 μg/wound
  wound closure percentage: 93.80 ± 2.79 *** %
[1]; Experimental 1, day 12, topical twice a day, CGS-21680 10 μg/wound
  wound closure percentage: 91.15 ± 2.72 ** %
[1]; Experimental 1, day 14, topical twice a day, CGS-21680 10 μg/wound
  wound closure percentage: 98.74 ± 0.60 ** %
[1]; Experimental 2, day 4, topical twice a day, CGS-21680 6.7 μg/wound
  wound closure percentage: 40.02 ± 5.03 ** %
[1]; Experimental 2, day 6, topical twice a day, CGS-21680 6.7 μg/wound
  wound closure percentage: 63.09 ± 2.58 *** %
[1]; Experimental 2, day 8, topical twice a day, CGS-21680 6.7 μg/wound
  wound closure percentage: 77.21 ± 2.44 *** %
[1]; Experimental 2, day 10, topical twice a day, CGS-21680 6.7 μg/wound
  wound closure percentage: 80.93 ± 2.08 *** %
[1]; Experimental 2, day 12, topical twice a day, CGS-21680 6.7 μg/wound
  wound closure percentage: 96.91 ± 1.08 *** %
[1]; Experimental 2, day 14, topical twice a day, CGS-21680 6.7 μg/wound
  wound closure percentage: 99.17 ± 0.54 *** %

## O=P1(N(CCCl)CCCl)NCCCO1 (centres unmarked) [CTX, cyclophosphamide]
[2]; 4/28
  tumor size elimination: 0.00 mm^3
[2]; 5/2
  tumor size elimination: 99.61 mm^3
[2]; 5/5
  tumor size elimination: 78.95 mm^3
[2]; 5/9
  tumor size elimination: −19.52 mm^3
[2]; 5/12
  tumor size elimination: −45.11 mm^3
[2]; 5/16
  tumor size elimination: −157.57 mm^3
[2]; 5/19
  tumor size elimination: −176.41 mm^3
[2]; 5/23
  tumor size elimination: −264.85 mm^3
[2]; 5/26
  tumor size elimination: −293.68 mm^3
[2]; 5/30
  tumor size elimination: −391.42 mm^3
[3]; 4/28
  average body weight: 19.64 g
[3]; 5/2
  average blood sugar: 113 dL
  average body weight: 20.04 g
[3]; 5/5
  average body weight: 18.46 g
[3]; 5/5~5/9
  average food intake: 4.89 g
[3]; 5/9
  average blood sugar: 93 dL
  average body weight: 19.00 g
[3]; 5/9~5/12
  average food intake: 5.61 g
[3]; 5/12
  average body weight: 19.51 g
[3]; 5/12~5/16
  average food intake: 5.38 g
[3]; 5/16
  average blood sugar: 109 dL
  average body weight: 20.99 g
[3]; 5/16~5/19
  average food intake: 5.21 g
[3]; 5/19
  average body weight: 20.42 g
[3]; 5/19~5/23
  average food intake: 4.70 g
[3]; 5/23
  average blood sugar: 122 dL
  average body weight: 21.16 g
[3]; 5/23~5/26
  average food intake: 4.76 g
[3]; 5/26
  average body weight: 20.21 g
[3]; 5/26~5/30
  average food intake: 5.22 g
[3]; 5/30
  average blood sugar: 108 dL
  average body weight: 22.18 g

From US20200289598A1, “SOYBEAN SEED EXTRACT, METHOD FOR PRODUCING THE SAME AND USES THEREOF” (CHARSIRE BIOTECHNOLOGY CORP., priority 2016, published 2020)
